This note sets out measurements from ChEMBL document CHEMBL2016540, “Indole-propionic acid derivatives as potent, S1P3-sparing and EAE efficacious sphingosine-1-phosphate 1 (S1P1) receptor agonists” (Bioorg Med Chem Lett, 2012).

In data set [1] the target is Sphingosine 1-phosphate receptor 3 (Homo sapiens, UniProt Q99500). Nature of the data set: Agonist activity at human S1P3 receptor assessed as Ca2+ mobilization by GeneBLAzer assay. It counts as functional. On the technique in general: Calcium assays in cells follow changes in intracellular calcium, usually with a dye or a luminescent sensor.
Sphingosine 1-phosphate receptor 3, sequence (Q99500 whole entry): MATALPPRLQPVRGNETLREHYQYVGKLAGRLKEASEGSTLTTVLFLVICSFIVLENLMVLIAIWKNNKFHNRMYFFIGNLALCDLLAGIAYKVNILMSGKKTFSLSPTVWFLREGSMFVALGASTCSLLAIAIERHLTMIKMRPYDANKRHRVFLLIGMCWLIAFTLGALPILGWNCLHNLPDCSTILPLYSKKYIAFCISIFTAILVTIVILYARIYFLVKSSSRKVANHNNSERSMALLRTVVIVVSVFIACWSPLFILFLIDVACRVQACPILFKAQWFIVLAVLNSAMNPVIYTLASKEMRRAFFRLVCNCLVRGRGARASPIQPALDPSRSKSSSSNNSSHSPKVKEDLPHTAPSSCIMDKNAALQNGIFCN
The target of data set [2] is Sphingosine 1-phosphate receptor 1 (Homo sapiens, UniProt P21453). Nature of the data set: Agonist activity at S1P1 receptor by Tango assay. The class given is functional.
Sphingosine 1-phosphate receptor 1, sequence (P21453 whole entry): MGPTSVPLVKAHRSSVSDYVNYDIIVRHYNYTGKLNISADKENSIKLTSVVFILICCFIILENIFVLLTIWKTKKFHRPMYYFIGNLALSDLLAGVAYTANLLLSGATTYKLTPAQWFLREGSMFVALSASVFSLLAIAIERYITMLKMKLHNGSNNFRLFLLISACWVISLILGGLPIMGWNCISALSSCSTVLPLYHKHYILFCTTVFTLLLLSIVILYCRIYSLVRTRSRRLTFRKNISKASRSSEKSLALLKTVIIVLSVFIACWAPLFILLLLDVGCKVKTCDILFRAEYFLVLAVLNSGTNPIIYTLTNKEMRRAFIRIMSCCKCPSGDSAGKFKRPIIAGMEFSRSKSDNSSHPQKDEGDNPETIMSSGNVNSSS
A short description of data set [3]: Ratio of drug level in brain to blood in mouse at 2 mg/kg, ip at 1 hr. It counts as ADME, organism-based. On the set-up: dose 2 mg/kg, route intraperitoneal. As to conditions: brain and blood.
A short description of data set [4]: Clearance in C57BL/6 mouse blood at 1 mg/kg, iv and 2 mg/kg, po. It counts as ADME, organism-based.
The test system of data set [5] is Mus musculus. Kind of data set: Immunosuppressive activity in naive B6 mouse assessed as peripheral lymphocytes at 1 mg/kg, po at 24 hrs relative to control. The class given is functional.
The nature of data set [6]: Cmax in C57BL/6 mouse blood at 1 mg/kg, iv and 2 mg/kg, po. The class given is ADME, organism-based.
A short description of data set [7]: Terminal half life in C57BL/6 mouse blood at 1 mg/kg, iv and 2 mg/kg, po. The settings on record: read-out: beta t1/2 (converted). The class given is ADME, organism-based.
The species named for data set [8] is Mus musculus. Nature of the data set: Immunosuppressive activity in C57BL/6 mouse autoimmune encephalomyelitis model assessed as efficacy relative to fingolimod. It counts as functional, organism-based.
Data set [9] in a line: Ratio of drug level in brain to blood in mouse at 2 mg/kg, ip at 4 hrs. The class given is ADME, organism-based. On the set-up: dose 2 mg/kg, route intraperitoneal. The settings on record: brain and blood.
Data set [10] is described as follows: Oral bioavailability in C57BL/6 mouse blood at 2 mg/kg. The class given is ADME, organism-based.
For data set [11], the system named is Mus musculus. Nature of the data set: Immunosuppressive activity in naive B6 mouse assessed as peripheral lymphocytes at 1 mg/kg, po at 4 hrs relative to control. It counts as functional.
Data set [12] in a line: Volume of distribution at steady state in C57BL/6 mouse blood at 1 mg/kg, iv and 2 mg/kg, po. It counts as ADME, organism-based. The settings on record: read-out: Vdss.
A short description of data set [13]: Ratio of drug level in brain to blood in mouse at 2 mg/kg, ip at 2 hrs. The settings on record: brain and blood. On the set-up: dose 2 mg/kg, route intraperitoneal. It counts as ADME, organism-based.

Calls of active or inactive are those of the source. The calls are words filed in the database; no cut-off is given here.

As for `COc1ccc(-c2noc(-c3ccc(OC(C)C)c(Cl)c3)n2)c2c1c(CCC(=O)O)cn2C`, the EC50 (in general, the concentration at which the effect is half-maximal) in data set [1] was over 10000 nM; in data set [2], 6.31 nM.
In the same order, the values of `CC(C)Oc1ccc(-c2nc(-c3cccc4c(CCC(N)=O)c[nH]c34)no2)cc1Cl` are over 10000 nM and 0.0316 nM.
In the same order, the values of `CC(C)Oc1ccc(-c2nc(-c3cccc4c(CCCC(=O)O)c[nH]c34)no2)cc1Cl` are over 10000 nM and 0.398 nM.
In the same order, the values of `CC(C)Oc1ncc(-c2nc(-c3cccc4c(CCC(=O)O)c[nH]c34)no2)cc1Cl` are over 10000 nM and 0.398 nM.
Regarding `CC(C)Oc1ccc(-c2nc(-c3ccc4[nH]c(CCC(=O)O)cc4c3)no2)cc1Cl`, the EC50 in data set [1] was over 10000 nM; in data set [2], 0.2 nM.
In the same order, the values of `CC(C)Oc1ccc(-c2nc(-c3c(F)ccc4c(CCC(=O)O)cn(C)c34)no2)cc1Cl` are over 10000 nM and 25.1 nM.
In the same order, the values of `O=C(O)CCc1c[nH]c2c(-c3noc(-c4ccc(Cl)cc4)n3)cccc12` are over 10000 nM and 3160 nM.
For `CC(C)Oc1ccc(-c2nc(-c3cccc4c(CCCCC(=O)O)c[nH]c34)no2)cc1Cl`, the EC50 in data set [1] is over 10000 nM; in data set [2], 0.0501 nM.
Consider `CC(C)Oc1ccc(-c2nc(-c3ccc(F)c4c(CCC(=O)O)cn(C)c34)no2)cc1Cl`, for which, in data set [3], the Kp (in general, the ratio of the level in a tissue or fluid to that in plasma or blood) at 1 h is 0.35. This compound also registered a clearance in data set [4] of 3.22 mL/min/kg. The Activity in the data set on Mus musculus [5] was determined as 114%; with Mus musculus [11] it was 21%. The values for the EC50 in data set [1] and in [2] were over 10000 nM and under 0.01 nM, respectively. The Cmax (in general, the maximum level reached in the sampled fluid or tissue) in data set [6] was 1700 ng/mL. For the same compound, the half-life in data set [7] was 3.83 h. Moreover, the Efficacy entry in the data set listed under Mus musculus [8] is “Active”. Also, in data set [9], the Kp at 4 h was 0.48. The bioavailability (as a rule, the share of a dose that reaches the circulation, judged against a reference dose that is usually intravenous) in data set [10] stood at 100%. The Vd in data set [12] worked out at 0.84 L/kg. The Kp at 2 h in [13] was determined as 0.48.
On to `COc1cc(-c2nc(-c3cccc4c(CCC(=O)O)c[nH]c34)no2)cnc1OC(C)C`, for which the EC50 is over 10000 nM in [1] and 100 nM in data set [2].
In the same order, the values of `CNC(=O)CCc1c[nH]c2c(-c3noc(-c4ccc(OC(C)C)c(Cl)c4)n3)cccc12` are over 10000 nM and 0.0398 nM.
In the same order, the values of `CC(C)Oc1ccc(-c2nc(-c3ccc4ccn(CCC(=O)O)c4c3)no2)cc1Cl` are over 10000 nM and 398 nM.
In the same order, the values of `O=C(O)CCc1c[nH]c2c(-c3noc(C4CCCCC4)n3)cccc12` are over 10000 nM and over 10000 nM.
For the compound `CC(C)Oc1ncc(-c2nc(-c3cccc4c(CCC(=O)O)c[nH]c34)no2)cc1C(F)(F)F`, the EC50 was over 10000 nM in data set [1] and 0.251 nM in data set [2].
On to `CCn1cc(CCC(=O)O)c2cccc(-c3noc(-c4ccc(OC(C)C)c(Cl)c4)n3)c21`, for which the EC50 in data set [1] was over 10000 nM; in data set [2], 0.316 nM.
In the same order, the values of `Cc1cc(-c2nc(-c3cccc4c(CCC(=O)O)c[nH]c34)no2)cnc1OC(C)C` are over 10000 nM and 1.58 nM.
In the same order, the values of `CCCn1cc(CCC(=O)O)c2cccc(-c3noc(-c4ccc(OC(C)C)c(Cl)c4)n3)c21` are over 10000 nM and 200 nM.
In the same order, the values of `O=C(O)CCc1c[nH]c2c(-c3noc(C4CCOCC4)n3)cccc12` are over 10000 nM and over 10000 nM.
For the compound `CC(C)Oc1ccc(-c2nc(-c3ccc4c(ccn4CCC(=O)O)c3)no2)cc1Cl`, the EC50 in [1] was over 10000 nM; in data set [2] it was 2.51 nM.
On to `COc1ccc(-c2nc(-c3cccc4c(CCC(=O)O)c[nH]c34)no2)cc1OC`, for which the EC50 is over 10000 nM in [1] and 1260 nM in data set [2].
In the same order, the values of `CC(C)Oc1ccc(-c2nc(-c3cccc4c(C(=O)O)c[nH]c34)no2)cc1Cl` are over 10000 nM and 5.01 nM.
In the same order, the values of `CC(C)Oc1ccc(-c2nc(-c3cccc4c(CCC(=O)O)cn(C(C)C)c34)no2)cc1Cl` are over 10000 nM and 20 nM.
In the same order, the values of `CC(C)Oc1ccc(-c2nc(-c3ccc4c(CCC(=O)O)c[nH]c4c3)no2)cc1Cl` are over 10000 nM and 0.251 nM.
With `CC(C)Oc1ccc(-c2nc(-c3cccc4c(CC(=O)O)c[nH]c34)no2)cc1Cl`, the EC50 in [1] is over 10000 nM; in [2], 39.8 nM.
On to `CC1(C)Oc2ccc(-c3nc(-c4cccc5c(CCC(=O)O)c[nH]c45)no3)cc2O1`, for which the values for the EC50 in data set [1] and in data set [2] were over 10000 nM and 398 nM, respectively.
In the same order, the values of `CC(C)Oc1ccc(-c2nc(-c3cccc4c(CCC(=O)O)c[nH]c34)no2)cc1Cl` are over 10000 nM and 0.0126 nM.
In the same order, the values of `CC(C)Oc1ccc(-c2nc(-c3cccc4c(CCc5nnn[nH]5)c[nH]c34)no2)cc1Cl` are over 10000 nM and 0.0794 nM.
For `O=C(O)CCc1c[nH]c2c(-c3noc(-c4ccc5c(c4)OCCO5)n3)cccc12`, the EC50 in data set [1] is over 10000 nM; in data set [2], over 3160 nM.
Turning to `CC(C)Oc1ccc(-c2nc(-c3cc(F)cc4c(CCC(=O)O)cn(C)c34)no2)cc1Cl`, the figures for the EC50 in [1] and in [2] were over 10000 nM and under 0.01 nM, respectively.
Regarding `CCOc1ccc(-c2nc(-c3cccc4c(CCC(=O)O)c[nH]c34)no2)cc1OCC`, the EC50 was over 10000 nM in data set [1] and 3.16 nM in data set [2].
In the same order, the values of `CC(C)Oc1ccc(-c2nc(-c3cccc4c(CCC(=O)O)cn(C)c34)no2)cc1Cl` are over 10000 nM and 0.00631 nM.
